Test results as given in patent US8618149B2, “Inhibition of biofilms in plants with imidazole derivatives” (North Carolina State University, priority 2007, dated 2013).
Counter-ions that a name gives are not always drawn.

Columns and labels:
[1] = test system: marine α-proteobacterium R. salexigens; details: documented in literature (Yamada et al. 1997); cited from earlier work
[2] = test system: Xanthomonas strain Xcv 135; experiment: Biofilm inhibition, crystal violet biofilm attachment assay on PVC microtiter wells; assay type: cell-based; details: biofilm formation, starting OD600 0.55, 28° C., 6 hours, static
Procedure: Activity Testing. A standard crystal violet reporter assay is employed to assess the effect of compounds on the formation of biofilms. Among others, the following strains are tested:
Bacteria are allowed to form biofilms in a multi-well plate in the absence or presence of one or more compounds. Planktonic (or free growing) bacteria are then removed, wells washed vigorously, and crystal violet added. Crystal violet stains the remaining bacteria which, following ethanol solubilization, is quantitated by spectrophotometry (A540). Time-dependent and concentration-dependent analysis of each compound are performed.
Activity testing of imidazole library members on Xanthomonas. Biofilm formation on PVC microtiter wells was accomplished using Xanthomonas strains Xcv 135 (known to infect peppers and tomatoes) and Xcv 5 (known to infect tomatoes but not peppers) as models. The Starting Optical Density (OD at 600 nm) for biofilm attachment assay was 0.55, the temperature for this assay was 28° C., the duration of incubation was 6 hours under, and the assay was static.
Biofilm inhibition results are as follows for screens with Xcv 135. The Xcv 5 strain is tested in the same manner.

[3] = test system: calcium channels; details: known from literature (Bickmeyer, Toxicon 2005); cited from earlier work

Compound | anti-biofouling properties: biofilm development in R. salexigens [1] | % Inhibition at 20 μM (vs. Xcv 135) [2] [%] | activity of calcium channels [3]
Nc1ncc(/C=C/CNC(=O)c2cc(Br)c(Br)[nH]2)[nH]1 [oroidin, oroidin hydrochloride] | inhibiting biofilm development | – | –
NC[C@@H]1Cc2nc(N)[nH]c2C[C@H]1CN (racemic) [Formula (II)(a)(±)] | – | 0 | –
Nc1nc2c([nH]1)C[C@@H](CNC(=O)c1cc(Br)c[nH]1)[C@H](CNC(=O)c1cc(Br)c[nH]1)C2 (racemic) [Formula (II)(b)(v)(trans)(±)] | – | 0 | –
Nc1nc([C@@H]2c3[nH]c(N)nc3C[C@H](CNC(=O)c3cc(Br)c[nH]3)[C@H]2CNC(=O)c2cc(Br)c(Br)[nH]2)c[nH]1 [bromoageliferin] | inhibiting biofilm development | – | modulate the activity of calcium channels
Nc1nc2c([nH]1)C[C@@H](CNC(=O)c1cc(Br)c(Br)[nH]1)[C@H](CNC(=O)c1cc(Br)c(Br)[nH]1)C2 (racemic) [Formula (II)(b)(vi)(trans)(±)] | – | 71 | –
